Test results reported in PMC9682480, ““Vermellogens” and the Development of CB[8]-Based Supramolecular Switches Using pH-Responsive and Non-Toxic Viologen Analogues” (Journal of the American Chemical Society, 2022).

Experiments:
[1] = pKa determination by UV–vis acid–base titrations in water; type: physicochemical; settings: aqueous phosphate and carbonate buffers; RH^2+/R^+ or MH^+/M; UV–vis titrations in water, chloride salts
Text: Next, in our study of the stimuli-responsiveness of the “vermellogens”, we proceeded to verify the new analogues as pH-based molecular switches, by conducting UV–vis acid–base titrations in water for the compounds Ra–eH·2Cl. All the new “vermellogens” show similar π–π* main absorption bands centered at λ^1max = 366–377 nm at neutral or slightly acidic pH. An increase in the basicity of the solution produces the decrease of the aforementioned bands and the concomitant rise of new absorptions associated with the deprotonated compounds and centered at λ^2max = 460–475 nm. The pKa values obtained by the aforementioned UV–vis titrations for Ra–eH·2Cl are quite similar, showing no dependence on the substituent on the pyridinium N^+ atoms within their structures (Table 1 and Figures S115–S125). Furthermore, to evaluate the effect of the two different pyridinium heterocycles on the observed anomalous pKa’s, two analogues were prepared (Ma–bH·Cl), in which one of these moieties was substituted by a neutral phenyl ring.
4.2. pK a determination for Rb by UV-Vis
(§1) Figure S 116: UV-Vis spectra for the titration of R b·2Cl at 20 μM in NaH 2PO4/Na2HPO4, KHCO3/K2CO3 and Na2HPO4/Na2PO4 buffers. On the top right: Absorption of R b+ at λ = 474 nm plotted against pH. pH V (mL) of V (mL) of V (mL) of V (mL) of V (mL) of ABS log[A474-(measured) solution A solution B solution C solution D solution E (474 ARb2+)/(ARb1+- […]
(§2) Table S 4: Experimental data obtained for the UV-Vis titration of R b·2Cl at 20 μM in NaH2PO4/Na2HPO4, KHCO3/K2CO3 and Na2HPO4/Na2PO4 buffer. Solution A: 20 μM of R b·2Cl and 0.05 M of NaH2PO4. Solution B: 20 μM of R b·2Cl and 0.05 M of NaHPO4. Solution C: 20 μM of R b·2Cl and 0.05 M of Na2PO4. Solution D: 20 μM of R b·2Cl and 0.05 M of KHCO3. Solution E: 20 μM of R b·2Cl and 0.05 M of […]
4.4. pK a determination for Rc by UV-Vis
as §1, with “119:” for “116:”, “c·2Cl” for “b·2Cl”, “c+” for “b+”, “466” for “474”, “log[A466-(measured)” for “log[A474-(measured)”, “(466 ARc2+)/(ARc+-” for “(474 ARb2+)/(ARb1+-”
Table S 5: Experimental data obtained for the UV-Vis titration of R c·2Cl at 20 μM in NaH2PO4/Na2HPO4, KHCO3/K2CO3 and Na2HPO4/Na2PO4 buffer. Solution A: 20 μM of Rc·2Cl and 0.05 M of NaH2PO4. Solution B: 20 μM of R c·2Cl and 0.05 M of NaHPO4. Solution C: 20 μM of R c·2Cl and 0.05 M of Na2PO4. Solution D: 20 μM of R c·2Cl and 0.05 M of KHCO3. Solution E: 20 μM of R c·2Cl and 0.05 M of […]
4.6. pK a determination for Rd by UV-Vis
as §1, with “122:” for “116:”, “d·2Cl” for “b·2Cl”, “d+” for “b+”, “475” for “474”, “log[A475-(measured)” for “log[A474-(measured)”, “(475 ARd2+)/(ARd1+-” for “(474 ARb2+)/(ARb1+-”
as §2, with “6:” for “4:”, “d·2Cl” for “b·2Cl”
4.8. pK a determination for Re by UV-Vis
as §1, with “125:” for “116:”, “e·2Cl” for “b·2Cl”, “e+” for “b+”, “460” for “474”, “log[A460-(measured)” for “log[A474-(measured)”, “(460 ARe2+)/(ARe1+-” for “(474 ARb2+)/(ARb1+-”
Table S 7: Experimental data obtained for the UV-Vis titration of R e·2Cl at 20 μM in NaH2PO4/Na2HPO4, KHCO3/K2CO3 and Na2HPO4/Na2PO4 buffer. Solution A: 20 μM of R e·2Cl and 0.05 M of […]

[2] = Cell viability assay (WST-1) in human fibroblastic cell line; type: cell-based; settings: human, HFF-1 fibroblast cells; HFF-1, 0.5 mM, 24 h, WST-1; read-out: cell viability (cell survival)
Method: (§3) To conclude with this part of our work on the molecular responsiveness of the “vermellogens,” we decided to substantiate whether the bis-pyridinium core in the compounds would have or not a viologen-like reversible redox behavior. Thus, cyclic voltamograms were recorded for RaH·2Cl (2 mM) in buffered aqueous solutions at pH = 2 (0.05 M H3PO4/NaH2PO4), 7 (0.05 M NaH2PO4/Na2HPO4), and 12 (0.05 M Na2HPO4/Na3PO4). Those shown both the acidic (RaH^2+) and basic (Ra^+) forms of the “red thread” owning non-reversible redox peaks (Figure 1b).
(§4) Fibroblast cells (HFF-1; ATTC® SCRC-1041TM) were maintained in Dulbecco’s modified eagle’s medium (DMEM) supplemented with 10% FBS and 1% P/S and kept at 37 °C in a humidified atmosphere containing 5% CO2 until their use. HFF-1 cells were seeded in 96 well-plates at an initial density of 10^4 cells/well and allowed to attach for 24 h at 37 °C. The following day, culture medium was removed, replenished by fresh medium (90 µl) and cells were exposed to different concentration of R aH·2Cl and MV (10 µl; final concentrations 0.01, 0.05, 0.1, 0.5 and 1 mM). Control conditions included cells cultured in culture medium, but in absence of compound. Cells were further incubated for 24 h at 37°C and cell viability was monitored using the tetrazolium salt (WST-1) method.6 Absorbance at 450 nm was measured using a Synergy HTX Plate Reader (Biotek, Winooski, VT, USA) and the percent of cell viability (%) was calculated as follows:
(§5) Viability (%) = […]
(§6) Where Asample and Anegative control depict those absorbance values measured at 450 nm in presence and in absence of compound, respectively. All conditions were tested by triplicate in two independent experiments. Data were expressed as mean ± standard deviation (SD). Statistical analysis was performed by two-ways and one-way ANOVA with Tukey’s LSD post hoc test using IBM SPSS Statistics version 23. A p ≤ 0.05 was considered statistically significant.
(§7) Figure S 138: Compounds tested in WST-1 assay for cell viability.
(§8) 6 Carballo-Pedrares, N.; Kattar, A.; Concheiro, A.; Alvarez-Lorenzo, C.; Rey-Rico, Niosomes-based gene delivery systems for effective transfection of human mesenchymal stem cells. A. Matter. Sci. Eng. 2021, 18, 112307.

HFF-1 cells = assay: as above; type: cell-based; settings: HFF-1, 1 mM, 24 h, WST-1
Method: as §3, §4, §5, §6, §7, §8

**Q.** For `C[n+]1ccc(/C=N/Nc2cc[n+](C)cc2)cc1` [RaH·2X, (E)-1-methyl-4-((2-(1-methylpyridin-1-ium-4-yl)hydrazineylidene)methyl)pyridin-1-ium], which pKa [1] is on record?
**A.** The pKa was 9.

**Q.** What about the viability at 24 h, 0.5 mM [2] of the same molecule?
**A.** Its viability at 24 h, 0.5 mM is roughly 90%.

**Q.** What about the “cell survival at the highest concentration tested” value (HFF-1 cells) of the same molecule?
**A.** Its value is “slight reduction on cell survival”.
